Measured values published in ChEMBL document CHEMBL1155666, “Zygosporin D and two new cytochalasins produced by the fungus Metarrhizium anisopliae” (2000).

Key:
Oryza sativa [1] = assay: Growth retardation of rice seedlings assessed as second leaf sheath length at 1 nmol after 72 hrs exposure to continuous fluorescent light relative to control; type: functional
Oryza sativa [2] = assay: Growth retardation of rice seedlings assessed as reduction in second leaf sheath length at 1 nmol after 72 hrs exposure to continuous fluorescent light relative to water; type: functional; parameters: scale not given: the % may be the effect or the level left

Compound | Activity (Oryza sativa [1]) | Activity (Oryza sativa [2])
C[C@H]1[C@H]2[C@H](Cc3ccccc3)NC(=O)[C@]23[C@H](O)/C=C/[C@@](C)(O)C(=O)[C@@H](C)C/C=C/[C@H]3C(=O)[C@@H]1C | 94% | 
CC1=C(C)[C@H]2[C@H](Cc3ccccc3)NC(=O)[C@]23[C@H](O)/C=C/[C@@](C)(O)C(=O)[C@@H](C)C/C=C/[C@H]3[C@@H]1O [DEACETYLCYTOCHALASIN C] | 83% | 
C=C1[C@@H](C)[C@H]2[C@H](Cc3ccccc3)NC(=O)[C@]23[C@H](O)/C=C/[C@@](C)(O)C(=O)[C@@H](C)C/C=C/[C@H]3[C@@H]1O [ZYGOSPORIN D] |  | 41%
